Measured values as given in patent publication US20250059220A1, “SUBSTITUTED BENZOTHIOPHENE DERIVATIVES AND METHODS OF USE THEREOF” (Merck Sharp & Dohme LLC, priority 2021, published 2025).

Legend:
human PTPN1 (1-435) = human PTPN1 (1-435) (Homo sapiens (Human), UniProt P18031); test: Human PTPN1 Biochemical Assay; settings: DiFMUP substrate, read-out: PTP1B IC50
Procedure, shortened: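 Read-out is DiFMUP hydrolysis fluorescence (360 nm excitation, 460 nm emission) after 1 h at room temperature, following 30 min enzyme–compound preincubation.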

human PTPN2 (1-387) = human PTPN2 (1-387) (Homo sapiens (Human), UniProt P17706); test: Human PTPN2 Biochemical Assay; settings: DiFMUP substrate
Sequence of human PTPN2 (1-387) (P17706 other isoform, or with tags, fused parts or gaps): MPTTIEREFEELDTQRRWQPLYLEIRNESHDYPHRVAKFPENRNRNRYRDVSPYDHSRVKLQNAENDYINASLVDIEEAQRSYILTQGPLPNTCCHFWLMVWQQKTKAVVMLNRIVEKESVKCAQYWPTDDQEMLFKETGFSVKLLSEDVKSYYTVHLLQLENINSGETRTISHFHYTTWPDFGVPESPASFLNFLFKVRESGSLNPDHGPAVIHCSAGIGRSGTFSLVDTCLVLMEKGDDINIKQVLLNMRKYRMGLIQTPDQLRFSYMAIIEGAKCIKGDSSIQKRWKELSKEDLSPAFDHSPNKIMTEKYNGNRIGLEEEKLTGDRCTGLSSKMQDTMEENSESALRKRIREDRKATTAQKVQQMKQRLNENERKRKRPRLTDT
Procedure, shortened: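 Human PTPN2 (1-387) preincubated 30 min at RT with compound (10-point 3-fold series) in Tris pH 7.4 buffer with 0.5 mM DTT, then DiFMUP substrate added for 1 h at RT. Fluorescence at ex 360/em 460 nm, normalised to no-enzyme and enzyme controls; EC50 from 4-parameter fit.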

Sequence of human PTPN1 (1-435) (P18031 whole entry): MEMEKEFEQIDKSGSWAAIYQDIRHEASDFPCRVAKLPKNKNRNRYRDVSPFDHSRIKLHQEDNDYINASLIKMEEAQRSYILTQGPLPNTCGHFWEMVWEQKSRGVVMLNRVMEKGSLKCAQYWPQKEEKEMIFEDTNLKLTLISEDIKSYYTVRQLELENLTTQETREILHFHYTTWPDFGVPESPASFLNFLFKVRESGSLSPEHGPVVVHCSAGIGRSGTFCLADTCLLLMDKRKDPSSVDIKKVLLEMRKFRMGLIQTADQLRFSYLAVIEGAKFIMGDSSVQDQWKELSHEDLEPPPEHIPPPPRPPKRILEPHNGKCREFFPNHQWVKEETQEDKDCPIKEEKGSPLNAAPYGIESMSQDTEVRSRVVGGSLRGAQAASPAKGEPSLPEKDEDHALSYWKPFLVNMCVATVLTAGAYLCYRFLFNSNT

Row | Compound | IC50 (human PTPN1 (1-435)) [µM] | IC50 (human PTPN2 (1-387)) [µM]
1 | O=C(NCCSC(F)(F)F)c1ccc2sc(C(F)(F)P(=O)(O)O)c(Br)c2c1 [Compound 157] | 2.38 | 5.25
2 | N#CCCNC(=O)c1ccc2sc(C(F)(F)P(=O)(O)O)c(Br)c2c1 [Compound 12] | 5.25 | 8.89
3 | CC(C)(O)c1ccc(CNC(=O)c2ccc3sc(C(F)(F)P(=O)(O)O)c(Br)c3c2)cn1 [Compound 92] | 1.94 | 3.16
4 | CC(NC(=O)c1ccc2sc(C(F)(F)P(=O)(O)O)c(Br)c2c1)c1cnccn1 (stereo not drawn) [Compound 103] | 3.14 | 3.46
5 | O=C(NCCn1cccn1)c1ccc2sc(C(F)(F)P(=O)(O)O)c(Br)c2c1 [Compound 144] | 1.41 | 7.17
6 | NC(=O)c1cc(OCC2CC(C3CC3)C2)c2sc(C(F)(F)P(=O)(O)O)c(Br)c2c1 (stereo not drawn) [Compound 295] | 0.038 | 0.0389
7 | O=C(NCc1cccnn1)c1cc(OCCCc2cccnc2)c2sc(C(F)(F)P(=O)(O)O)c(Br)c2c1 [Compound 266] | 0.0174 | 0.0129
8 | COCCN(CCOC)C(=O)c1ccc2sc(C(F)(F)P(=O)(O)O)c(Br)c2c1 [Compound 7, ((5-(bis(2-methoxyethyl)carbamoyl)-3-bromobenzo[b]thiophen-2-yl)difluoromethyl)phosphonic acid] | 0.764 | 1.33
9 | O=C(NCc1nccc(-c2cccnc2)n1)c1ccc2sc(C(F)(F)P(=O)(O)O)c(Br)c2c1 [Compound 91] | 4.98 | 6.17
10 | CCC(NC(=O)c1ccc2sc(C(F)(F)P(=O)(O)O)c(Br)c2c1)c1nccs1 (stereo not drawn) [Compound 105] | 5.14 | 5.78
11 | CS(=O)(=O)NCCCOc1cc(C(N)=O)cc2c(Br)c(C(F)(F)P(=O)(O)O)sc12 [Compound 256] | 0.066 | 0.128
12 | CC(C)CCOc1cc(C(N)=O)cc2c(Br)c(C(F)(F)P(=O)(O)O)sc12 [Compound 254] | 0.155 | 0.111
13 | O=C(NC1(c2cncc(C(F)(F)F)c2)CC1)c1ccc2sc(C(F)(F)P(=O)(O)O)c(Br)c2c1 [Compound 111] | 3.98 | 4.26
14 | O=C(NCc1c[nH]nn1)c1cc(F)c2sc(C(F)(F)P(=O)(O)O)c(Br)c2c1 [Compound 165] | 0.675 | 0.39
15 | CC(Cn1ccnc1)NC(=O)c1ccc2sc(C(F)(F)P(=O)(O)O)c(Br)c2c1 (stereo not drawn) [Compound 148] | 5.27 | 5.94
16 | N#Cc1ccc2c(C#N)c(C(F)(F)P(=O)(O)O)sc2c1 [Compound 301, ((3,6-dicyanobenzo[b]thiophen-2-yl)difluoromethyl)phosphonic acid] | 12.9 | 17.1

Row | Compound | IC50 (human PTPN1 (1-435)) [µM] | IC50 (human PTPN2 (1-387)) [µM]
17 | NC(=O)c1cc(OCC23COC(CF)(C2)C3)c2sc(C(F)(F)P(=O)(O)O)c(Br)c2c1 [Compound 290] | 0.011 | 0.00974
18 | O=P(O)(O)C(F)(F)c1sc2ccc(-c3nnc[nH]3)cc2c1Br [Compound 227, ((3-bromo-5-(4H-1,2,4-triazol-3-yl)benzo[b]thiophen-2-yl)difluoromethyl)phosphonic acid] | 1 | 0.856
19 | O=C(Nc1ncc(C2CCC2)o1)c1ccc2sc(C(F)(F)P(=O)(O)O)c(Br)c2c1 [Compound 19] | 1.5 | 2.35
20 | O=P(O)(O)C(F)(F)c1sc2c(OCCCC(F)(F)F)cc(-c3nnc(C(F)(F)F)[nH]3)cc2c1Br [Compound 420, ((3-bromo-7-(4,4,4-trifluorobutoxy)-5-(5-(trifluoromethyl)-4H-1,2,4-triazol-3-yl)benzo[b]thiophen-2-yl)difluoromethyl)phosphonic acid] | 0.0027 | 0.00285
21 | O=C(N[C@H]1Cc2ccc(F)cc21)c1ccc2sc(C(F)(F)P(=O)(O)O)c(Br)c2c1 [Compound 15] | 5.62 | 6.16
22 | NC(=O)c1ccc2sc(C(F)(F)P(=O)(O)O)c(Br)c2c1 [Compound 2] | 3.23 | 5.32
23 | O=C(NCCc1cnc2n(c1=O)CCCC2)c1ccc2sc(C(F)(F)P(=O)(O)O)c(Br)c2c1 [Compound 72] | 2.75 | 3.52
24 | O=C(NCCn1nnc2ccccc21)c1ccc2sc(C(F)(F)P(=O)(O)O)c(Br)c2c1 [Compound 89] | 5.12 | 6.04
25 | O=C(N[C@@H]1[C@@H]2COC[C@@H]21)c1ccc2sc(C(F)(F)P(=O)(O)O)c(Br)c2c1 [Compound 57] | 4.33 | 5.09
26 | COc1cccc(NCc2ccc3sc(C(F)(F)P(=O)(O)O)c(Br)c3c2)c1 [Compound 220, ((3-bromo-5-(((3-methoxyphenyl)amino)methyl)benzo[b]thiophen-2-yl)difluoromethyl)phosphonic acid] | 7.14 | 6.06
27 | CC(NC(=O)c1ccc2sc(C(F)(F)P(=O)(O)O)c(Br)c2c1)c1nncn1C (stereo not drawn) [Compound 175] | 1.42 | 2.02
28 | N#Cc1c(C(F)(F)P(=O)(O)O)sc2ccc(C(=O)NCc3c[nH]nn3)cc12 [Compound 173] | 0.739 | 0.578
29 | Cn1cc(NC(=O)c2ccc3sc(C(F)(F)P(=O)(O)O)c(Br)c3c2)cn1 [Compound 96] | 0.94 | 1.28
30 | O=P(O)(O)C(F)(F)c1sc2ccc(-c3ncc[nH]3)cc2c1Br [Compound 228, ((3-bromo-5-(1H-imidazol-2-yl)benzo[b]thiophen-2-yl)difluoromethyl)phosphonic acid] | 1.85 | 1.61
31 | Cc1[nH]cnc1CNC(=O)c1ccc2sc(C(F)(F)P(=O)(O)O)c(Br)c2c1 [Compound 217, ((3-bromo-5-(((5-methyl-1H-imidazol-4-yl)methyl)carbamoyl)benzo[b]thiophen-2-yl)difluoromethyl)phosphonic acid] | 1.84 | 7.06

Next, values leading:

Row | IC50 (human PTPN1 (1-435)) [µM] | IC50 (human PTPN2 (1-387)) [µM] | Compound
32 | 0.0943 | 0.0467 | N#Cc1cc(Cl)ccc1COc1cc(C(N)=O)cc2c(Br)c(C(F)(F)P(=O)(O)O)sc12 [Compound 341]
33 | 0.0046 | 0.004 | NC(=O)c1cc(OCC23CC(S(N)(=O)=O)(C2)C3)c2sc(C(F)(F)P(=O)(O)O)c(Br)c2c1 [Compound 403]
34 | < 0.0025 | < 0.0025 | CS(=O)(=O)c1ccc(COc2cc(-c3cnn[nH]3)cc3c(Br)c(C(F)(F)P(=O)(O)O)sc23)cc1 [Compound 369]
35 | 0.0025 | 0.0161 | CNC(=O)c1cc(OCCCC(C)(F)F)c2sc(C(F)(F)P(=O)(O)O)c(Br)c2c1 [Compound 326]
36 | 0.0326 | 0.0379 | NC(=O)c1cc(OCc2ccc(CS(N)(=O)=O)cc2)c2sc(C(F)(F)P(=O)(O)O)c(Br)c2c1 [Compound 376]
37 | 0.0054 | 0.0044 | NC(=O)c1cc(OCCCC2(S(N)(=O)=O)CC2)c2sc(C(F)(F)P(=O)(O)O)c(Br)c2c1 [Compound 335]
38 | 0.0087 | 0.004 | CS(=O)(=O)c1ccc(COc2cc(C(N)=O)cc3c(Br)c(C(F)(F)P(=O)(O)O)sc23)cc1Cl [Compound 390]
39 | 2.69 | 24.7 | O=C(Nc1ccc2c(Br)c(C(F)(F)P(=O)(O)O)sc2c1)c1ccccc1 [Compound 303, ((6-benzamido-3-bromobenzo[b]thiophen-2-yl)difluoromethyl)phosphonic acid]
40 | 0.231 | 0.5 | CCCC(CO)Oc1cc(C(N)=O)cc2c(Br)c(C(F)(F)P(=O)(O)O)sc12 (stereo not drawn) [Compound 447, ((3-bromo-5-carbamoyl-7-((1-hydroxypentan-2-yl)oxy)benzo[b]thiophen-2-yl)difluoromethyl)phosphonic acid]
41 | 0.283 | 0.116 | NC(=O)c1cc(OCc2ccc(C(F)(F)F)cc2C(F)(F)F)c2sc(C(F)(F)P(=O)(O)O)c(Br)c2c1 [Compound 340]
42 | 0.0744 | 0.0512 | NC(=O)c1cc(OCc2ccc(C(F)(F)F)cc2F)c2sc(C(F)(F)P(=O)(O)O)c(Br)c2c1 [Compound 338]
43 | 0.0092 | 0.00967 | CNC(=O)c1cc(OCCCS(C)(=O)=O)c2sc(C(F)(F)P(=O)(O)O)c(Br)c2c1 [Compound 319]
44 | 0.213 | 0.069 | NC(=O)c1cc(OCc2ccc(C3CC3)cc2Cl)c2sc(C(F)(F)P(=O)(O)O)c(Br)c2c1 [Compound 399]
45 | 0.0025 | 0.0025 | CS(=O)(=O)CCCOc1cc(-c2cc(=O)cc[nH]2)cc2c(Br)c(C(F)(F)P(=O)(O)O)sc12 [Compound 460, ((3-bromo-7-(3-(methylsulfonyl)propoxy)-5-(4-oxo-1,4-dihydropyridin-2-yl)benzo[b]thiophen-2-yl)difluoromethyl)phosphonic acid]
46 | 0.0684 | 0.0685 | NC(=O)c1cc(OCCC2CCC2)c2sc(C(F)(F)P(=O)(O)O)c(Br)c2c1 [Compound 317]
47 | 0.0117 | 0.00784 | CNC(=O)c1cc(OCCCS(C)(=O)=O)c2sc(C(F)(F)P(=O)(O)O)c(C#N)c2c1 [Compound 422]
48 | 0.0165 | 0.0146 | Cc1c(C(F)(F)P(=O)(O)O)sc2c(OCCCS(C)(=O)=O)cc(-c3c[nH]nn3)cc12 [Compound 451, (difluoro(3-methyl-7-(3-(methylsulfonyl)propoxy)-5-(1H-1,2,3-triazol-4-yl)benzo[b]thiophen-2-yl)methyl)phosphonic acid]
49 | 0.0293 | 0.033 | CNC(=O)c1cc(OCCCS(N)(=O)=O)c2sc(C(F)(F)P(=O)(O)O)c(C)c2c1 [Compound 433]
50 | 0.174 | 0.104 | NC(=O)c1cc(OCc2ccc(F)c(C(F)(F)F)c2)c2sc(C(F)(F)P(=O)(O)O)c(Br)c2c1 [Compound 351]
51 | 0.0276 | 0.032 | NC(=O)c1cc(OC[C@H]2C[C@@H](S(N)(=O)=O)C2)c2sc(C(F)(F)P(=O)(O)O)c(Br)c2c1 [Compound 382]
